Usually IC50 stands for the midpoint of a concentration-inhibition curve.

This experiment deals with Type III protein secretion of the chimeric SopE‘-’Bla polypeptide (SPI1 type III protein secretion system). The experiment in a line: Primary assay: Type III protein secretion of the chimeric SopE'-'Bla polypeptide by Salmonella enterica. Conditions: read-out: SopE IC50(μM). Type of experiment: cell-based. The source says: Primary assay: Type III protein secretion of the chimeric SopE‘-’Bla polypeptide by Salmonella enterica. This procedure is a cell-based assay that measures the type III-dependent secretion by Salmonella enterica of a plasmid-encoded chimeric polypeptide whose synthesis can be regulated, and which is endowed with an enzymatic activity that can be monitored colorimetrically by hydrolysis of a substrate that is unable to penetrate into the bacterial cytoplasm within the time constraints of the reaction. Thus, the colormetric reaction is not influenced by SopE‘-’Bla polypeptide in the bacterial cytplasm. Instead, it effectively measures the amount of polypeptide that has been secreted from the S. enterica cytoplasm to the extracellular medium via type III system protein secretion.
The SopE‘-’Bla recombinant polypeptide consists of two functionally distinct domains spliced together. The N-terminus domain is encoded by a polynucleotide region specifying the signal for type III secretion of the SopE polypeptide of S. enterica, an effector of the SPI1 type III protein secretion system. The C-terminus domain of SopE‘-’Bla consists of a 263 amino acid peptide sequence that corresponds to the TEM-1 β-lactamase expressed by plasmid pBR322 but without its N-terminal signal sequence. The TEM-1 β-lactamase part of the SopE‘-’Bla chimeric polypeptide is used as a reporter enzyme. It is capable of hydrolyzing nitrocefin resulting in a product whose accumulation can be monitored by colorimetric detection. The secretion of the SopE‘-’Bla chimeric polypeptide from the cytoplasm to the extracellular medium is dependent on type III protein secretion.
For this procedure, cells grown under conditions known to favor a functional SPI1 secretion system are induced for expression of the SopE‘-’Bla protein and grown either in the presence or in the absence of putative inhibitors for determined time. Nitrocefin is then added to the various cultures and its hydrolysis are used for quantitation. An inhibitor of Type III protein secretion is generally a compound that reduces the signal of the enzymatic reaction by decreasing the amount of SopE‘-’Bla secreted into the extracellular medium.
Take `O=C(N[C@H](COCc1ccccc1)C(=O)O)/C(=C\c1ccc(Cl)c(Cl)c1)NC(=O)c1cc2ccccc2s1` [Compound 68, (R)-2-[2-[(Benzo[b]thiophene-2-carbonyl)amino]-3-(3,4-dichlorophenyl)-acryloylamino]-3-benzyloxypropionic acid]: the IC50 was 52 µM. The value for `O=C(N[C@@H](Cc1ccc(Cl)cc1)C(=O)O)/C(=C\c1cccc(C(F)(F)F)c1)NC(=O)c1cc2ccccc2o1` [Compound 69, (S)-2-[2-[(Benzofuran-2-carbonyl)amino]-3-(3-trifluoromethylphenyl)acryloylamino]-3-(4-chlorophenyl)propionic acid] was 28.5 µM; that for `Cn1cc(C(=O)N/C(=C/c2cccc(C(F)(F)F)c2)C(=O)N[C@H](COCc2ccccc2)C(=O)O)c2ccccc21` [Compound 70, (R)-3-Benzyloxy-2-[2-[(1-methyl-1H-indole-3-carbonyl)amino]-3-(3-trifluoromethylphenyl)acryloylamino]propionic acid] was 86.3 µM. The result for `O=C(NC(Cc1ccc(F)cc1)C(=O)O)/C(=C\c1cccc(C(F)(F)F)c1)NC(=O)c1ccc(-c2ccccc2)cc1` (stereo not shown) [Compound 71, 2-[2-[(Biphenyl-4-carbonyl)amino]-3-(3-trifluoromethylphenyl)acryloylamino]-3-(4-fluorophenyl)propionic acid] reads 34.2 µM; that for `O=C(NC(Cc1ccc(C(F)(F)F)cc1)C(=O)O)/C(=C\c1cccc(C(F)(F)F)c1)NC(=O)c1ccc(-c2ccccc2)cc1` (stereo not shown) [Compound 72, 2-[2-[(Biphenyl-4-carbonyl)amino)-3-(3-trifluoromethylphenyl)acryloylamino]-3-(4-trifluoromethylphenyl)propionic acid], 12.8 µM; that for `O=C(N[C@H](COCc1ccccc1)C(=O)O)/C(=C\c1ccc(Cl)c(Cl)c1)NC(=O)C1CCN(c2nccc(C(F)(F)F)n2)CC1` [Compound 73, (R)-3-Benzyloxy-2-(3-(3,4-dichlorophenyl)-2-{[1-(4-trifluoromethylpyrimidin-2-yl)-piperidine-4-carbonyl]amino}acryloylamino)propionic acid], 12.8 µM.

On to `O=C(N[C@@H](Cc1ccc(Cl)cc1)C(=O)O)/C(=C\c1cccc(C(F)(F)F)c1)NC(=O)C1CCN(c2nccc(C(F)(F)F)n2)CC1` [Compound 79, (S)-3-(4-Chlorophenyl)-2-(3-(3-trifluoromethylphenyl)-2-{[1-(4-trifluoromethyl-pyrimidin-2-yl)piperidine-4-carbonyl]amino}acryloylamino)propionic acid], for which the IC50 was 25.9 µM. The result for `O=C(N[C@H](COCc1ccccc1)C(=O)O)/C(=C\c1ccc(Br)cc1)NC(=O)C1CCN(c2nccc(C(F)(F)F)n2)CC1` [Compound 80, (R)-3-Benzyloxy-2-(3-(4-bromophenyl)-2-{[1-(4-trifluoromethylpyrimidin-2-yl)-piperidine-4-carbonyl]amino}acryloylamino)propionic acid] reads 38.5 µM. The value for `O=C(N[C@@H](CSCc1ccccc1)C(=O)O)/C(=C\c1ccc(Br)cc1)NC(=O)C1CCN(c2nccc(C(F)(F)F)n2)CC1` [Compound 81, (R)-3-Benzylsulfanyl-2-(3-(4-bromophenyl)-2-{[1-(4-trifluoromethylpyrimidin-2-yl)piperidine-4-carbonyl]amino}acryloylamino)propionic acid] was 58.1 µM; that for `O=C(N[C@@H](Cc1ccc(Cl)cc1)C(=O)O)/C(=C\c1ccc(Br)cc1)NC(=O)C1CCN(c2nccc(C(F)(F)F)n2)CC1` [Compound 82, (S)-2-(3-(4-Bromophenyl)-2-{[1-(4-trifluoromethylpyrimidin-2-yl)piperidine-4-carbonyl]amino}acryloylamino)-3-(4-chlorophenyl)propionic acid] was 27.8 µM. As for `O=C(N[C@@H](Cc1ccc(Cl)cc1)C(=O)O)/C(=C\c1ccc(OC(F)(F)F)cc1)NC(=O)C1CCN(c2nccc(C(F)(F)F)n2)CC1` [Compound 85, (S)-3-(4-Chlorophenyl)-2-(3-(4-trifluoromethoxyphenyl)-2-{[1-(4-trifluoromethyl-pyrimidin-2-yl)piperidine-4-carbonyl]amino}acryloylamino)propionic acid], the concentration for half-maximal inhibition (IC50) is 35.2 µM. Take `O=C(O)C(Cc1ccc(Cl)cc1)NC(=O)N(CCc1ccc(-c2ccccc2)cc1)Cc1cccc(C(F)(F)F)c1` (stereo not shown) [Compound 87, 2-[3-(2-Biphenyl-4-yl-ethyl)-3-(3-trifluoromethylbenzyl)ureido]-3-(4-chlorophenyl)propionic acid]: the IC50 was 1.5 µM.

As for `O=C(O)[C@H](COCc1ccccc1)NC(=O)N(CCc1ccc(-c2ccccc2)cc1)Cc1cccc(C(F)(F)F)c1` [Compound 88, (S)-3-Benzyloxy-2-[3-(2-biphenyl-4-yl-ethyl)-3-(3-trifluoromethylbenzyl)ureido]propionic acid], the half-inhibitory concentration (IC50) is 4 µM. In the case of `O=C(O)[C@H](COCc1ccccc1)NC(=O)N(CCc1ccc(-c2ccccc2)cc1)Cc1ccc(Cl)c(Cl)c1` [Compound 89, (S)-3-Benzyloxy-2-[3-(2-biphenyl-4-yl-ethyl)-3-(3,4-dichlorobenzyl)ureido]propionic acid], the half-inhibitory concentration (IC50) came out at 2.1 µM. Turning to `CC(C)(S)C(NC(=O)/C(=C\c1ccc(-c2ccccc2)cc1)NC(=O)c1ccc(C(F)(F)F)cc1)C(=O)O` (stereo not shown) [Compound 90], the concentration for half-maximal inhibition (IC50) worked out at 7.8 µM. The value for `O=C(NC(Cc1ccc(Cl)cc1)C(=O)O)/C(=C\c1ccc(Cl)c(Cl)c1)NC(=O)c1ccc(C(F)(F)F)cc1` (stereo not shown) [Compound 91] was 7.6 µM; that for `CC(C)(S)C(NC(=O)/C(=C\c1ccc(Cl)c(Cl)c1)NC(=O)c1ccc(-c2ccccc2)cc1)C(=O)O` (stereo not shown) [Compound 92] was 5 µM; that for `Cc1ccc(/C=C(/NC(=O)c2ccc(-c3ccccc3)cc2)C(=O)NC(C(=O)O)C(C)(C)S)s1` (stereo not shown) [Compound 93] was 1.4 µM. The value for `Cc1ccc(/C=C(/NC(=O)c2ccc(-c3ccccc3)cc2)C(=O)NC(C(=O)O)C(C)(C)S)o1` (stereo not shown) [Compound 94] was 55.2 µM; that for `CC(C)(S)C(NC(=O)/C(=C\c1cccc(C(F)(F)F)c1)NC(=O)c1ccc(-c2ccccc2)cc1)C(=O)O` (stereo not shown) [Compound 95] was 14.1 µM; that for `O=C(O)CCCCNC(=O)/C(=C\c1cccc(C(F)(F)F)c1)NC(=O)c1ccc(-c2ccccc2)cc1` [Compound 99] was 42 µM. The result for `O=C(NC(CCSCc1ccccc1)C(=O)O)/C(=C\c1ccc(Cl)cc1Cl)NC(=O)c1ccc(-c2ccccc2)cc1` (stereo not shown) [Compound 104] reads 3.8 µM; that for `O=C(N/C(=C/c1ccc(Cl)c(Cl)c1)C(=O)N1CCCCC1C(=O)O)c1ccc(-c2ccccc2)cc1` (stereo not shown) [Compound 107], 8 µM.

In the case of `NC(=O)C[C@@H](NC(=O)/C(=C\c1ccc(Cl)c(Cl)c1)NC(=O)c1ccc(-c2ccccc2)cc1)C(=O)O` [Compound 112], the IC50 stood at 16.6 µM. Take `O=C(O)CCCCNC(=O)/C(=C\c1ccc(Cl)c(Cl)c1)NC(=O)c1ccc(-c2ccccc2)cc1` [Compound 113]: the IC50 amounted to 14.5 µM. With `O=C(NC1(C(=O)O)CCCCC1)/C(=C\c1ccc(Cl)c(Cl)c1)NC(=O)c1ccc(-c2ccccc2)cc1` [Compound 114], the IC50 amounted to 7.3 µM. The value for `CC(C)(S)C(NC(=O)/C(=C\c1ccc(Cl)c(Cl)c1)NC(=O)c1ccccc1)C(=O)O` (stereo not shown) [Compound 115] was 61.6 µM; that for `COc1cccc(C(=O)N/C(=C/c2ccc(Cl)c(Cl)c2)C(=O)NC(Cc2ccc(Cl)cc2)C(=O)O)c1` (stereo not shown) [Compound 117] was 15.5 µM. In the case of `O=C(N/C(=C/c1cccc(C(F)(F)F)c1)C(=O)N1CCCCC1C(=O)O)c1ccc(C(F)(F)F)cc1` (stereo not shown) [Compound 118], the IC50 is 100 µM. The result for `CC(C)(S)C(NC(=O)/C(=C\c1ccc(Cl)c(Cl)c1)NC(=O)c1ccc(C(F)(F)F)cc1)C(=O)O` (stereo not shown) [Compound 120] reads 22.7 µM. The result for `CC(C)(S)C(NC(=O)/C(=C\c1ccc(C(F)(F)F)cc1)NC(=O)c1ccc(-c2ccccc2)cc1)C(=O)O` (stereo not shown) [Compound 124] reads 16 µM; that for `CCc1ccc(/C=C(/NC(=O)c2ccc(-c3ccccc3)cc2)C(=O)NC(C(=O)O)C(C)(C)S)cc1` (stereo not shown) [Compound 125], 20 µM. The value for `CC(C)(S)C(NC(=O)/C(=C\c1ccc(-c2ccccc2)cc1)NC(=O)c1ccc(-c2ccccc2)cc1)C(=O)O` (stereo not shown) [Compound 126] was 3 µM. With `CC(C)(S)C(NC(=O)/C(=C\c1cccc(Oc2ccccc2)c1)NC(=O)c1ccc(-c2ccccc2)cc1)C(=O)O` (stereo not shown) [Compound 127], the half-inhibitory concentration (IC50) was 10 µM. The value for `O=C(O)CCCCNC(=O)/C(=C\c1ccc(-c2ccccc2)cc1)NC(=O)c1ccc(C(F)(F)F)cc1` [Compound 132] was 42 µM. The value for `O=C(NC1(C(=O)O)CCCCC1)/C(=C\c1ccc(-c2ccccc2)cc1)NC(=O)c1ccc(C(F)(F)F)cc1` [Compound 135] was 50 µM; that for `Cc1ccccc1/C=C(/NC(=O)c1ccc(C(F)(F)F)cc1)C(=O)N[C@@H](CSCc1ccccc1)C(=O)O` [Compound 138] was 100 µM.

(Values after US20050250819A1 (priority 2004, published 2005).)
